Assay results from patent publication US20240148745A1, “COMPOUNDS FOR USE IN PROGRESSIVE MULTIPLE SCLEROSIS” (FONDAZIONE CENTRO SAN RAFFAELE, priority 2021, published 2024).

Legend:
rat primary OPC cultures = experiment: Differentiation of rat primary OPC into MBP+ OLs; format: cell-based; conditions: 96 h, 4 days of differentiation, read-out: MBP+ differentiation (MBP+/SOX10+ OLs plus compounds / plus basal medium)
In short: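 Primary rat OPCs were differentiated for 4 days with compounds at […], in triplicate over 3 independent experiments. Cells were immunolabelled for CNPase, MBP and SOX10, and MBP+ oligodendrocytes were counted by imaging. Results are fold increase in MBP+/SOX10+ cells over basal medium; 9-cis-RA ([…]) was the positive control.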

[1] = tested on: iPSC-derived glutamatergic neurons; experiment: ROS (tBuOOH)-mediated neuroprotective assay on hNeu; format: cell-based, human
Method: Neuroprotective experiments were performed using iPSC-derived glutamatergic neurons from 3 healthy controls cultured for 30-40 DIV. Cells were pre-treated for 24 h with […] of compounds, vehicle (DMSO) or 5 nM Mito-Q (mitoquinone) served as a positive control. On the next day cells were incubated for 2 h with 100 µM of tert-butyl peroxide (tBuOOH, Sigma), then the medium was replaced and the viability readout by CCK8 viability assay kit (Dojindo) was performed on the following day. The cell viability was expressed as normalized Z score and compared to tBuOOH-treated cells with nonparametric Kruskal-Wallis test with Dunn's multiple comparisons correction.
32 “Front runners” and 7 compounds from short list were tested on iPSC-derived neurons from three control lines in ROS-mediated assay to evaluate a neuroprotective potential of selected compounds. Three independent experiments were performed for CTR4 and CTR8, FIG. 20 (A, C), while two independent experiments were performed for CTR7, FIG. 20 (B).

[2] = tested on: H9-derived human neural stem cells; experiment: Neurotoxic or regenerative effect screening (CellTiter-Glo); format: cell-based; conditions: 10 μM, three independent screenings
Method: H9-derived human neural stem cells (H9 hNSCs, Gibco) were cultured according to the manufacturer's instructions. Briefly, H9 hNSCs were expanded and subsequently differentiated in neurobasal medium, 2% B27, 1% Glutamax, and 1% penicillin/streptomycin, supplemented with 10 ng/ml BDNF (Peprotech), and 2 ng/ml recombinant human GDNF (Peprotech). After 7 days, 500 μM of db-cAMP (N6,2′-O-dibutyryladenosine 3′,5′-cyclic monophosphate, Sigma) was added.
The metabolic activity/viability of selected compounds (32 “Front Runners”+24 compounds from the “Short list”) was evaluated by CellTiter-Glo® Luminescent Cell Viability Assay. The primary screen of Front Runner List (32 compounds)+24 compounds from Short List) on H9-derived human neurons was performed at 10 μM concentration. The validation of hits from primary screen on H9-derived human neurons was performed at 10 μM concentration.
32 Front Runners were tested at 10 μM on H9-derived human neuronal cultures and viability was evaluated by CellTiter-Glo® Luminescent Cell Viability Assay.

[3] = tested on: primary murine spinal cord culture; experiment: Myelinating cell cultures from primary murine spinal cord; format: cell-based, mouse; conditions: 1 μM
Method: Single cell suspensions are prepared from spinal cord of mouse embryos (E13) (adapted from Thomson, 2008) and 1.5×10^5 cells/well were plated into 96 well plates. Over time, these cultures mature and form axons, which later myelinate. Using spinal cord tissue facilitates the quantification of mature MBP+ oligodendrocytes and newly formed myelin by in-house high-content imaging system (Operetta High Content Imaging System, Perkin Elmer) with a 20× lens. From each well, 25 fields in a 5×5 matrix were scanned. Thirty-two “Front Runners” compounds were tested in replicates of five at 1 μM/DMSO, while T3, benzotropine and clemastine were used as positive controls, DMSO as negative/solvent control. Two experimental paradigms were applied: “Early treatment”: exposure to experimental agent from DIV7 to DIV14; “Late treatment”: exposure to experimental agent from DIV14-DIV21. On DIV21, cultures were fixed and stained (myelin: MBP, axons: NF200; nuclei: Hoechst). Imaging data were analysed using CellProfiler and in-house generated analysis pipeline.
Thirty-two “Front Runners” compounds were tested in replicates of five at 1 μM/DMSO, while T3, benztropine and clemastine were used as positive controls, DMSO as negative/solvent control. Two experimental paradigms were applied: “Early treatment”: exposure to experimental agent from DIV7 to DIV14; “Late treatment”: exposure to experimental agent from DIV14-DIV21. […] In “Late treatment” paradigm in myelin area evaluation were identified Vanoxerine, Roxadustat, Tamibarotene, Drinabant, Progesterone, Saracatinib. In quantification of myelinated axons were identified Vanoxerine, Drinabant, Roxadustat.

[4] = tested on: murine cortical neurons (14 DIV); experiment: NMDA-mediated neuroprotective assay (CCK8 viability); format: cell-based, mouse; conditions: 1 μM, 3 h pre-treatment, NMDA 8 μM 24 h, p<0.05
In short: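 Primary murine cortical neurons pre-treated with 1 μM compound for 3 or 24 h, then exposed to 8 μM NMDA for 24 h. Viability read by CCK-8 and expressed relative to NMDA-only control; vehicle 0.02% DMSO.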

[5] = control line CTR4, 1 μM, p<0.05
[6] = summary for all three control lines

Structure (SMILES)	fold induction at 1 µM (rat primary OPC cultures)	protection from tBuOOH insult [1, 6]	cumulative Z-scores of ATP production/viability [2]	myelin area ([3]; Early treatment DIV7 to DIV14)	neuroprotection of viability/metabolic activity against NMDA [4]	also measured
O=C(c1ccc(CN2CCOCC2)cc1)N1CCN(C2CC2)CC1 [Bavisant]	> 1.6					
CC(=O)N1CCN([C@H]2CCN(C(=O)N(C)[C@H](C)c3cc(C(F)(F)F)cc(C(F)(F)F)c3)[C@@H](c3ccc(F)cc3C)C2)CC1 [Casopitant]	> 1.6	potential neuroprotective effect from tBuOOH-mediated insult	potential hits	identified		protection from tBuOOH insult [1, 5]: protected from tBuOOH insult; protection from tBuOOH insult ([1]; control line CTR7, p=0.07): trend to significance; quantification of myelinated axons ([3]; Early treatment DIV7 to DIV14): identified
CCOC(=O)[C@@H](N)CCC(=O)N[C@@H](CSCc1ccccc1)C(=O)N[C@@H](C(=O)OCC)c1ccccc1.Cl [Ezatiostat hydrochloride, Ezatiostat Hydrochloride]		potential neuroprotective effect from tBuOOH-mediated insult	potential hits		hit compounds	
C[C@H](Nc1cc(-c2cnn(C)c2)cc(Nc2cnccn2)n1)c1ccc(F)cc1 [NS-018]		potential neuroprotective effect from tBuOOH-mediated insult		identified		protection from tBuOOH insult [1, 5]: protected from tBuOOH insult; protection from tBuOOH insult ([1]; control line CTR8, p<0.05): potential neuroprotective compound from tBuOOH-mediated insult; quantification of myelinated axons ([3]; Early treatment DIV7 to DIV14): identified
NCCCC[C@H](NC(=O)[C@@H](Cc1cc(Br)c(O)c(Br)c1)NC(=O)N1CCC(N2Cc3ccccc3NC2=O)CC1)C(=O)N1CCN(c2ccncc2)CC1 [Olcegepant]	> 1.6	potential neuroprotective effect from tBuOOH-mediated insult				
O=C(NOC[C@H](O)CO)c1ccc(F)c(F)c1Nc1ccc(I)cc1F [PD-0325901]	> 1.6		potential hits			
CC(=O)[C@H]1CC[C@H]2[C@@H]3CCC4=CC(=O)CC[C@]4(C)[C@H]3CC[C@]12C [Progesterone]				identified	hit compounds	myelin area ([3]; Late treatment DIV14-DIV21): identified
CC1(C)CCC(C)(C)c2cc(NC(=O)c3ccc(C(=O)O)cc3)ccc21 [Tamibarotene]	> 1.6			identified	hit compounds	myelin area ([3]; Late treatment DIV14-DIV21): identified
